In general, MIC refers to the least concentration at which growth counts as inhibited. What is called IC50 is the point on the concentration scale where inhibition reaches its midpoint.

The results in this text go back to article PMC10913484, “Hydroxyhexylitaconic acids as potent IMP-type metallo-β-lactamase inhibitors for controlling carbapenem resistance in Enterobacterales” (Microbiology Spectrum, 2024).

One experiment has as its system E. coli DH5α pBC-VIM-2. The experiment in a line: Susceptibility test (microdilution), transformant. The experiment is classed as cell-based. The procedure: (§1) Susceptibility testing, based on the microdilution method, was performed according to the guidelines of the Clinical and Laboratory Standards Institute ([36]).
Background: In broth dilution the organism is exposed to a series of concentrations in liquid medium.

The target of experiment [1] is T1, IMP-1 (Serratia marcescens, UniProt P52699).
T1 construct: made in house
It counts as binding. The conditions noted are these: DSF; control protein 52.5°C. The procedure: The DSF assay was performed using the Protein Thermal Shift Dye Kit (Thermo Fisher Scientific) and StepOnePlus Real-Time PCR Systems (Applied Biosystems) as follows: 2 µL of IMP-1 enzyme (100 µM), 1 µL of EDTA or HHIA solution (5 mM), 2.5 µL of diluted Protein Thermal Shift Dye (32×), 5 µL of Protein Thermal Shift buffer, and 9.5 µL of water were mixed in a test tube and incubated for 15 min at 4°C. Four replicates of each sample were performed. The fluorescence was monitored at 0.7°C increments from 4°C to 99°C. The relative fluorescence units were fitted with the Boltzmann equation using the TSA-CRAFT software to determine the melting point (Tm) ([47]).

For experiment [2], the target named is T1, IMP-1. It counts as biochemical. The following applies: IMP-1 with agent (5 mM stock), dialysis. The procedure: A total of 5 µL of IMP-1 (100 µM) and 2 µL of EDTA (5 mM) or HHIA (5 mM) were mixed in 100 µL of 20 mM HEPES buffer (pH 7.5) pretreated with Chelex 100 resin (Bio-Rad) and incubated on ice for 30 min. The samples were dialyzed against ultrapure water at 4°C for 6 h using Slide-A-Lyzer Dialysis Cassettes (cutoff, 3.5 K) (Thermo Fisher Scientific) and treated with proteinase K (FUJIFILM Wako Pure Chemical Corporation) at 37°C for 1 h. The zinc concentration in the samples was determined using a Zinc Assay Kit (MG Metallogenics).

Another experiment deals with E. coli NUBL-24 (IMP-1). The experiment in a line: Susceptibility test, clinical isolate. The experiment is classed as cell-based. The following applies: E. coli NUBL-24 (IMP-1); for MIC: Escherichia coli. The procedure:
as §1

The subject of a further experiment is E. coli NUBL-22 (IMP-6). Kind of experiment: Susceptibility test, clinical isolate. It counts as cell-based. The following applies: Escherichia coli. The procedure: as §1
Experiment [3] deals with K. pneumoniae NUBL-8 (IMP-1). The experiment in a line: Susceptibility test, clinical isolate. The experiment is classed as cell-based. The conditions noted are these: Klebsiella pneumoniae. The procedure: as §1
Experiment [4] concerns K. oxytoca NUBL-827 (IMP-1). Kind of experiment: Susceptibility test, clinical isolate. It counts as cell-based. The following applies: Klebsiella oxytoca. The procedure:
as §1

The subject of experiment [5] is K. pneumoniae AR0076 (VIM-1). Kind of experiment: Susceptibility test, clinical isolate. The conditions noted are these: Klebsiella pneumoniae. It counts as cell-based. The procedure: as §1
In experiment [6] the test system is K. pneumoniae MS5674 (NDM-1/VIM-1). Kind of experiment: Susceptibility test, clinical isolate. It counts as cell-based. The conditions noted are these: Klebsiella pneumoniae. The procedure: as §1
A further experiment concerns E. coli 465 (IMP-1). The experiment in a line: Susceptibility test, clinical isolate. The experiment is classed as cell-based. The conditions noted are these: Escherichia coli. The procedure: as §1
Experiment [7] has as its system P. penneri E11-M475 (IMP-1). Kind of experiment: Susceptibility test, clinical isolate. The experiment is classed as cell-based. The conditions noted are these: Proteus penneri. The procedure: as §1
Experiment [8] has as its system E. cloacae NUBL-5 (IMP-1). The experiment in a line: Susceptibility test, clinical isolate. The following applies: Enterobacter cloacae. The experiment is classed as cell-based. The procedure: as §1
The next experiment deals with E. coli 426 (IMP-1). The experiment in a line: Susceptibility test, clinical isolate. The following applies: Escherichia coli. It counts as cell-based. The procedure:
as §1

Experiment [9] has as its system K. pneumoniae AR0034 (IMP-4). The experiment in a line: Susceptibility test, clinical isolate. It counts as cell-based. The conditions noted are these: Klebsiella pneumoniae, K. pneumoniae AR0034 (IMP-4). The procedure: as §1
The test system of experiment [10] is K. pneumoniae NUBL-23 (IMP-6). The experiment in a line: Susceptibility test, clinical isolate. The conditions noted are these: Klebsiella pneumoniae. The experiment is classed as cell-based. The procedure: as §1
The target in experiment [11] is T1, IMP-1. Kind of experiment: In vitro inhibition assay (IPM hydrolysis). The experiment is classed as biochemical. The following applies: read-out: IC50 for IMP-1. The procedure: MBLs were incubated with HHIAs in 20 mM HEPES buffer (pH 7.5) containing 200 mM NaCl and 50 µg/mL BSA at 30°C for 5 min. IPM was added at a concentration of 100 µM, and the rate of IPM hydrolysis was monitored at 297 nm. The initial velocity (v0) rates were plotted against HHIA’s logarithmic concentrations, and the data were fitted to a four-parameter variable slope to obtain the half-maximal inhibitor concentration (IC50) values using GraphPad Prism 9 software (GraphPad Software). The inhibition constant (Ki) was determined as follows: v0 was measured after varying the concentrations of IPM and HHIAs, and inverse v0 (1/v0) was plotted against the inverse IPM concentration [1/(IPM)]. Lineweaver–Burk plots were created to obtain Ki values under the competitive inhibition model using the SigmaPlot 14 suite (Hulinks).

The next experiment deals with E. coli DH5α pBC-IMP-1. Kind of experiment: Susceptibility test (microdilution), transformant. The experiment is classed as cell-based. The procedure: as §1
For another experiment, the system named is E. coli DH5α pBC-NDM-1. Kind of experiment: Susceptibility test (microdilution), transformant. The experiment is classed as cell-based. The following applies: E. coli DH5α pBC-NDM-1. The procedure: as §1
The subject of the next experiment is E. coli DH5α pCL-SMB-1. Kind of experiment: Susceptibility test (microdilution), transformant. It counts as cell-based. The conditions noted are these: E. coli DH5α pCL-SMB-1. The procedure: as §1
Experiment [12] concerns IMP-1-producing E. coli NUBL-24. Kind of experiment: Time-killing assay. The following applies: MPM 1 µg/mL alone. The experiment is classed as cell-based. The procedure:
The initial density of IMP-1-producing E. coli NUBL-24 (MPM MIC, 8 µg/mL) was adjusted to approximately 5 × 10^6 colony-forming units (cfu)/mL. Either MPM (1 µg/mL) or 9-HHIA/10-HHIA (50 µg/mL) alone or a combination of the two was added to the bacterial solution, and then incubation was performed at 37°C. LB broth containing bacteria alone was used as a control. At 0, 2, 4, 8, and 12 h after adding the agents, an aliquot of the bacterial culture was removed, diluted, and spotted on LB agar plates to count the viable bacterial cells. The detection limit was set at 333 cfu/mL.

Where [13] appears, read: IPM alone (Control), read-out: IPM MIC.
The mark [14] stands for this setting: MPM alone (Control), read-out: MPM MIC.

The structures appear in SMILES notation. ≈ marks a conversion by molar mass, not a printed value. Where two headings read alike, the source gives them in different places.

T1 sequence (P52699 19-246, looked up, species assumed): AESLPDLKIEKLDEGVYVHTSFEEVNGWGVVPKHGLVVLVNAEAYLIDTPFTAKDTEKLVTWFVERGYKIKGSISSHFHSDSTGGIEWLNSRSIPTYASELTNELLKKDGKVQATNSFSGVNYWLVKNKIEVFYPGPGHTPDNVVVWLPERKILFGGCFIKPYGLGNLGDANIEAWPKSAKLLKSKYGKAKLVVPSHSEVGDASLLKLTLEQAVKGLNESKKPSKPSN

As to `CC(C)(O/N=C(\C(=O)N[C@@H]1C(=O)N2C(C(=O)[O-])=C(C[n+]3ccccc3)CS[C@H]12)c1csc(N)n1)C(=O)O` [CAZ, ceftazidime], the MIC with E. coli DH5α pBC-VIM-2 (Escherichia coli, read-out: CAZ MIC, CAZ alone (Control)) fell in the range of 4 to 8 µg/mL (≈ 7.32 to 14.6 µM).

Regarding `O=C(O)CN(CCN(CC(=O)O)CC(=O)O)CC(=O)O` [EDTA, reference compound], the “Melting temperature (Tm) of treated IMP-1” value on IMP-1 [1] worked out at 43.4 °C. Further, on IMP-1 [2], the “Zinc ions in IMP-1 after treatment” value was “completely lost”.

`C[C@@H](O)[C@H]1C(=O)N2C(C(=O)O)=C(SCCN=CN)C[C@H]12` [IPM, imipenem, reference compound]: the MIC amounted to 8 µg/mL (≈ 26.7 µM) in the experiment on E. coli NUBL-24 (IMP-1) (setting [13]); 2 µg/mL (≈ 6.68 µM) in the experiment on E. coli NUBL-22 (IMP-6) (setting [13]); 4 µg/mL (≈ 13.4 µM) in [3] (setting [13]); 16 µg/mL (≈ 53.4 µM) in [4] (setting [13]); 32 µg/mL (≈ 107 µM) in [5] (setting [13]); 32 µg/mL (≈ 107 µM) in experiment [6] (setting [13]). The MIC in the experiment with E. coli 465 (IMP-1) (setting [13]) was 32 µg/mL (≈ 107 µM); in [7] (setting [13]), more than 64 µg/mL; in experiment [8] (setting [13]), 8 µg/mL (≈ 26.7 µM); with E. coli 426 (IMP-1) (setting [13]), 8 µg/mL (≈ 26.7 µM); in experiment [9] (setting [13]), 4 µg/mL (≈ 13.4 µM); in experiment [10] (setting [13]), 1 µg/mL (≈ 3.34 µM).

In the case of `C=C(CC(=O)O)C(=O)O` [Itaconic acid, itaconic acid], the IC50 at IMP-1 [11] is more than 1000 µM. Further, the “MPM MIC” value in the experiment with E. coli DH5α pBC-IMP-1 (+agent 6.25 μg/mL) was 1 µg/mL; with E. coli DH5α pBC-IMP-1 (+agent 25 μg/mL), 1 µg/mL; in the experiment with E. coli DH5α pBC-IMP-1 (+agent 100 μg/mL), 1 µg/mL; with E. coli DH5α pBC-NDM-1 (+agent 6.25 μg/mL), more than 64 µg/mL; in the experiment with E. coli DH5α pBC-NDM-1 (+agent 25 μg/mL) it was more than 64 µg/mL; in the experiment with E. coli DH5α pBC-NDM-1 (+agent 100 μg/mL), more than 64 µg/mL. The “MPM MIC” value with E. coli DH5α pCL-SMB-1 (+agent 6.25 μg/mL), with E. coli DH5α pCL-SMB-1 (+agent 25 μg/mL) and with E. coli DH5α pCL-SMB-1 (+agent 100 μg/mL) was 32 µg/mL throughout. Besides, the “CAZ MIC” value with E. coli DH5α pBC-VIM-2 (+agent 6.25 μg/mL), in the experiment on E. coli DH5α pBC-VIM-2 (+agent 25 μg/mL) and in the experiment on E. coli DH5α pBC-VIM-2 (+agent 100 μg/mL) was 8 µg/mL each time.

Take `C[C@@H](O)[C@H]1C(=O)N2C(C(=O)O)=C(S[C@@H]3CN[C@H](C(=O)N(C)C)C3)[C@H](C)[C@H]12` [MPM, meropenem, reference compound]: the “Time-kill: MPM alone” value in experiment [12] is reported as “regrew close to the control level at 12 h”. Further, the MIC was 8 µg/mL (≈ 20.9 µM) with E. coli NUBL-24 (IMP-1) (setting [14]); 32 µg/mL (≈ 83.4 µM) in the experiment on E. coli NUBL-22 (IMP-6) (setting [14]); 16 µg/mL (≈ 41.7 µM) in experiment [3] (setting [14]); 32 µg/mL (≈ 83.4 µM) in [4] (setting [14]); 32 µg/mL (≈ 83.4 µM) in [5] (setting [14]); more than 64 µg/mL in experiment [6] (setting [14]). For the same compound, the minimal inhibitory concentration (MIC) in the experiment on E. coli 465 (IMP-1) (setting [14]) is 32 µg/mL (≈ 83.4 µM); in [7] (setting [14]), more than 64 µg/mL; in experiment [8] (setting [14]), 16 µg/mL (≈ 41.7 µM); in the experiment with E. coli 426 (IMP-1) (setting [14]) it was 16 µg/mL (≈ 41.7 µM); in [9] (setting [14]) it was 8 µg/mL (≈ 20.9 µM); in experiment [10] (setting [14]) it was 64 µg/mL (≈ 167 µM). Also, in the experiment on E. coli DH5α pBC-IMP-1 (Escherichia coli, read-out: MPM MIC, MPM alone (Control)), the MIC came to 1 µg/mL (≈ 2.61 µM). Besides, the “MPM MIC” value in the experiment on E. coli NUBL-24 (IMP-1) (MPM alone (Control)) is 8 µg/mL; in the experiment on E. coli DH5α pBC-IMP-1 (MPM alone (Control)) it was 1 µg/mL.
